Laboratory results reported in publication PMC4125463 (Cancer prevention research (Philadelphia, Pa.), 2014).

Legend:
Assay type in all cases: biochemical
ERK2 = ERK2 (Homo sapiens, UniProt P28482); assay: […] kinase assay with recombinant active ERK2
p110α (PI3-K) = p110α (PI3-K) (Homo sapiens, UniProt P42336); assay: […] lipid kinase assay with recombinant active p110α
p38α = p38α (Homo sapiens, UniProt Q16539); assay: […] kinase assay with recombinant active p38α
Sequence of p38α (Q16539 2-360): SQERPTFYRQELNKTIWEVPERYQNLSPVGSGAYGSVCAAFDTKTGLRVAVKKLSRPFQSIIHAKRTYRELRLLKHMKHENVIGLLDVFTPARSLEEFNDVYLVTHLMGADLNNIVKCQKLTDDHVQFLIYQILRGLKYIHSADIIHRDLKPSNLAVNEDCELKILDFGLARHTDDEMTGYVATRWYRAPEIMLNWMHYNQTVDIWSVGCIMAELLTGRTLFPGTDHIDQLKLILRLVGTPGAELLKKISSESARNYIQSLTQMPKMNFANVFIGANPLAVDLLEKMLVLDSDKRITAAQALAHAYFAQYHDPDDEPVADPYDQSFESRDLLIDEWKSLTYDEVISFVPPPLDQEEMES

Sequence of ERK2 (P28482 2-360): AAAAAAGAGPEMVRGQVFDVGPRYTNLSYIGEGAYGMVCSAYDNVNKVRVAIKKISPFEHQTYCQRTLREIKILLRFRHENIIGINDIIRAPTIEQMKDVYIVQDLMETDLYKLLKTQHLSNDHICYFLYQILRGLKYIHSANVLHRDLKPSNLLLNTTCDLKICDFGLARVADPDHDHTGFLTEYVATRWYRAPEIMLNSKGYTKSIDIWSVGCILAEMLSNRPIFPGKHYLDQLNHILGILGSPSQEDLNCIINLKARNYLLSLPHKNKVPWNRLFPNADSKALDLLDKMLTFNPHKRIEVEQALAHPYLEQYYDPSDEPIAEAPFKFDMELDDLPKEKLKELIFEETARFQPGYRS
Sequence of p110α (PI3-K) (P42336 whole entry): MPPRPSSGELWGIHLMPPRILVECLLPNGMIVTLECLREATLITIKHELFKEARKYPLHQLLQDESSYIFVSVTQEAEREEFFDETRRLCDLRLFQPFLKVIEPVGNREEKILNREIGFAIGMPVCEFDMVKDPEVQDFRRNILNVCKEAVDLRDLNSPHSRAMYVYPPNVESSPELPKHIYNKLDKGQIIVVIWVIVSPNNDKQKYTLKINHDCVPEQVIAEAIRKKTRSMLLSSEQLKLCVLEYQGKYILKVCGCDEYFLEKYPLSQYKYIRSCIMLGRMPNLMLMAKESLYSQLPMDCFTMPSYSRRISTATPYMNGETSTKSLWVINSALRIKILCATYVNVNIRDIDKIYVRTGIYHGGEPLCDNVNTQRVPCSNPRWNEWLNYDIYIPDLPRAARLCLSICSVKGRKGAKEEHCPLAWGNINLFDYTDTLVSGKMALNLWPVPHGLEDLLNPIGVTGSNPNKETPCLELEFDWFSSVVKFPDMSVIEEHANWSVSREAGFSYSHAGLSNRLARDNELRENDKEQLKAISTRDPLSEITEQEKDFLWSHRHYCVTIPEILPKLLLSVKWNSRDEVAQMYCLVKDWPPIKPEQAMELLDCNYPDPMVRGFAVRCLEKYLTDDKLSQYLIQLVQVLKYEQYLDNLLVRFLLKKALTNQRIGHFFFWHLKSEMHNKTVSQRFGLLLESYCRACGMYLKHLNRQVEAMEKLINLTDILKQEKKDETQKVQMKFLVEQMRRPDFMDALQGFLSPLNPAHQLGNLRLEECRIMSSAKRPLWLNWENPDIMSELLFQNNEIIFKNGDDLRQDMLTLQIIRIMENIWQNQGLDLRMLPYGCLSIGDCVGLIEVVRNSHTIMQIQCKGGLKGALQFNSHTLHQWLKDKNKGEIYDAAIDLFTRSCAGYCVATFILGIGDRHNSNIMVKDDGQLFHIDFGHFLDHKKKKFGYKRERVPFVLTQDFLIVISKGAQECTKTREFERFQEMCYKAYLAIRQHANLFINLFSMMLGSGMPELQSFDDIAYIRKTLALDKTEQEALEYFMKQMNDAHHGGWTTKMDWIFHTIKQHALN

IC50 (ERK2): 20.9 µM
IC50 (p110α (PI3-K)): 10.3 µM
IC50 (p38α): 12.9 µM
Compound: O=C1CCC(O)(CCOC(=O)/C=C/c2ccc(O)c(O)c2)CC1 [HOEC, (+)-2-(1-hydroxyl-4-oxocyclohexyl) ethyl caffeate]
